# Source: article PMC5218480 (PLoS ONE, 2017)
# Test system: MV-4-11 cells
# Assay: Gene expression microarray analysis (Affymetrix PrimeView) and GSEA
# Type: cell-based, human
# Design: RFU PODN (11730768_x_at) / Fold change /veh PODN (11730768_x_at) / RFU LINC00158 (11744669_a_at) / Fold change /veh LINC00158 (11744669_a_at) / RFU DUSP10 (11751237_a_at) / Fold change /veh DUSP10 (11751237_a_at) / RFU ID3 (11757404_x_at) / Fold change /veh ID3 (11757404_x_at) / RFU PLEKHG5 (11737974_s_at) / Fold change /veh PLEKHG5 (11737974_s_at) / RFU LRRC4B (11730491_at) / Fold change /veh LRRC4B (11730491_at) / RFU GIMAP4 (11747438_a_at) / Fold change /veh GIMAP4 (11747438_a_at) / RFU KRT8 (11758183_x_at) / Fold change /veh KRT8 (11758183_x_at) / RFU CNN1 (11734310_a_at) / Fold change /veh CNN1 (11734310_a_at) / RFU VPS37D (11726825_at) / Fold change /veh VPS37D (11726825_at) / RFU C10orf10 (11716522_x_at) / Fold change /veh C10orf10 (11716522_x_at) / RFU KIR2DL2 /// KIR2DL4 /// KIR2DL5A /// KIR2DL5B /// KIR2DS1 /// KIR2DS2 /// KIR2DS3 /// KIR2DS4 /// KIR3DL3 /// KIR3DL3 /// KIR3DS1 (11738374_at) / Fold change /veh KIR2DL2 /// KIR2DL4 /// KIR2DL5A /// KIR2DL5B /// KIR2DS1 /// KIR2DS2 /// KIR2DS3 /// KIR2DS4 /// KIR3DL3 /// KIR3DL3 /// KIR3DS1 (11738374_at) / RFU C1QL1 (11718748_at) / Fold change /veh C1QL1 (11718748_at) / RFU TMPRSS4 (11747572_a_at) / Fold change /veh TMPRSS4 (11747572_a_at) / RFU HAMP (11756126_x_at) / Fold change /veh HAMP (11756126_x_at) / RFU RNFT2 (11725882_a_at) / Fold change /veh RNFT2 (11725882_a_at) / RFU NR4A2 (11747474_a_at) / Fold change /veh NR4A2 (11747474_a_at) / RFU ABCC12 (11746883_a_at) / Fold change /veh ABCC12 (11746883_a_at) / RFU TMEM136 (11760407_x_at) / Fold change /veh TMEM136 (11760407_x_at) / RFU CLDN22 /// WWC2 (11732394_at) / Fold change /veh CLDN22 /// WWC2 (11732394_at) / RFU HLA-DPB1 (11760878_x_at) / Fold change /veh HLA-DPB1 (11760878_x_at) / RFU SPINT1 (11716480_a_at) / Fold change /veh SPINT1 (11716480_a_at) / RFU GAP43 (11754022_s_at) / Fold change /veh GAP43 (11754022_s_at) / RFU A4GNT (11735810_at) / Fold change /veh A4GNT (11735810_at) / RFU PRB3 (11715151_x_at) / Fold change /veh PRB3 (11715151_x_at) / RFU TUBB4B (11761932_at) / Fold change /veh TUBB4B (11761932_at) / RFU CAPN14 (11732068_a_at) / Fold change /veh CAPN14 (11732068_a_at) / RFU TMCC2 (11721928_a_at) / Fold change /veh TMCC2 (11721928_a_at) / RFU IRGQ (11745062_a_at) / Fold change /veh IRGQ (11745062_a_at) / RFU FAM174B (11720279_a_at) / Fold change /veh FAM174B (11720279_a_at) / RFU TMPRSS4 (11748680_a_at) / Fold change /veh TMPRSS4 (11748680_a_at) / RFU FAM212B (11763350_a_at) / Fold change /veh FAM212B (11763350_a_at) / RFU PLEKHG5 (11743358_a_at) / Fold change /veh PLEKHG5 (11743358_a_at) / RFU ZSCAN30 (11745921_a_at) / Fold change /veh ZSCAN30 (11745921_a_at) / RFU CMKLR1 (11741424_a_at) / Fold change /veh CMKLR1 (11741424_a_at) / RFU LOC101060620 /// MAPK8IP1 (11723275_at) / Fold change /veh LOC101060620 /// MAPK8IP1 (11723275_at) / RFU SPTSSB (11747773_x_at) / Fold change /veh SPTSSB (11747773_x_at) / RFU PRSS12 (11739890_at) / Fold change /veh PRSS12 (11739890_at) / RFU BIN1 (11741810_x_at) / Fold change /veh BIN1 (11741810_x_at) / RFU WNT11 (11732464_a_at) / Fold change /veh WNT11 (11732464_a_at) / RFU C10orf10 (11716521_a_at) / Fold change /veh C10orf10 (11716521_a_at) / RFU C5orf56 (11738089_at) / Fold change /veh C5orf56 (11738089_at) / RFU CYB561 (11721691_x_at) / Fold change /veh CYB561 (11721691_x_at) / RFU ANKRD19P (11752326_a_at) / Fold change /veh ANKRD19P (11752326_a_at) / RFU OR2T12 /// OR2T33 /// OR2T8 (11738714_s_at) / Fold change /veh OR2T12 /// OR2T33 /// OR2T8 (11738714_s_at) / RFU VCAN (11748164_a_at) / Fold change /veh VCAN (11748164_a_at) / RFU JSRP1 (11732532_at) / Fold change /veh JSRP1 (11732532_at) / RFU KRTAP10-11 (11738290_x_at) / Fold change /veh KRTAP10-11 (11738290_x_at) / RFU MYO3A (11730013_a_at) / Fold change /veh MYO3A (11730013_a_at) / RFU EBF3 (11725865_a_at) / Fold change /veh EBF3 (11725865_a_at) / RFU CAMK2N1 (11719241_x_at) / Fold change /veh CAMK2N1 (11719241_x_at) / RFU C5orf56 (11738088_a_at) / Fold change /veh C5orf56 (11738088_a_at) / RFU OLFML3 (11715873_a_at) / Fold change /veh OLFML3 (11715873_a_at) / RFU LOC100653217 /// NTM (11731650_a_at) / Fold change /veh LOC100653217 /// NTM (11731650_a_at) / RFU MAPK11 (11762145_a_at) / Fold change /veh MAPK11 (11762145_a_at) / RFU FIZ1 (11724087_x_at) / Fold change /veh FIZ1 (11724087_x_at) / RFU OASL (11726364_x_at) / Fold change /veh OASL (11726364_x_at) / RFU SOX15 (11748057_x_at) / Fold change /veh SOX15 (11748057_x_at) / RFU CD79A (11719716_a_at) / Fold change /veh CD79A (11719716_a_at) / RFU HIST1H1D (11736915_at) / Fold change /veh HIST1H1D (11736915_at) / RFU CASKIN2 (11723855_a_at) / Fold change /veh CASKIN2 (11723855_a_at) / RFU LOC730098 (11760151_x_at) / Fold change /veh LOC730098 (11760151_x_at) / RFU OR4N2 (11742367_at) / Fold change /veh OR4N2 (11742367_at) / RFU PRRT2 (11749266_a_at) / Fold change /veh PRRT2 (11749266_a_at) / RFU SNX32 (11753110_a_at) / Fold change /veh SNX32 (11753110_a_at) / RFU CDHR5 (11726645_a_at) / Fold change /veh CDHR5 (11726645_a_at) / RFU RCAN1 (11760418_a_at) / Fold change /veh RCAN1 (11760418_a_at) / RFU FAM167A (11723789_a_at) / Fold change /veh FAM167A (11723789_a_at) / RFU FAM26E (11764081_at) / Fold change /veh FAM26E (11764081_at) / RFU ISYNA1 (11749810_s_at) / Fold change /veh ISYNA1 (11749810_s_at) / RFU ACY1 (11761880_at) / Fold change /veh ACY1 (11761880_at) / RFU 11764098_at / Fold change /veh 11764098_at / RFU SAMD14 (11745864_x_at) / Fold change /veh SAMD14 (11745864_x_at) / RFU NPB (11741838_a_at) / Fold change /veh NPB (11741838_a_at) / RFU TMPRSS6 (11731388_a_at) / Fold change /veh TMPRSS6 (11731388_a_at) / RFU KRTAP10-2 (11738614_at) / Fold change /veh KRTAP10-2 (11738614_at) / RFU ARHGAP8 /// PRR5-ARHGAP8 (11727945_x_at) / Fold change /veh ARHGAP8 /// PRR5-ARHGAP8 (11727945_x_at) / RFU KRTAP5-7 /// NADSYN1 (11734609_at) / Fold change /veh KRTAP5-7 /// NADSYN1 (11734609_at) / RFU RASL12 (11751679_a_at) / Fold change /veh RASL12 (11751679_a_at) / RFU CDKN2B (11736163_a_at) / Fold change /veh CDKN2B (11736163_a_at) / RFU PRF1 (11729649_at) / Fold change /veh PRF1 (11729649_at) / RFU, ZNF638 /// ZNF638-IT1 / Fold change vs veh, ZNF638 /// ZNF638-IT1 / RFU, PANK3 / Fold change vs veh, PANK3 / RFU, SH3YL1 / Fold change vs veh, SH3YL1 / RFU, ZEB2 / Fold change vs veh, ZEB2 / RFU, NRIP1 / Fold change vs veh, NRIP1 / RFU, PTTG1IP / Fold change vs veh, PTTG1IP / RFU, CAPN2 / Fold change vs veh, CAPN2 / RFU, MED14 / Fold change vs veh, MED14 / RFU, SNORA58 / Fold change vs veh, SNORA58 / RFU, C1orf63 / Fold change vs veh, C1orf63 / RFU, LRRFIP1 / Fold change vs veh, LRRFIP1 / RFU, NDUFAF7 / Fold change vs veh, NDUFAF7 / RFU, SLC12A2 / Fold change vs veh, SLC12A2 / RFU, IBTK / Fold change vs veh, IBTK / RFU, ESF1 / Fold change vs veh, ESF1 / Fold change vs veh, TMEM50B / RFU, TAOK1 / Fold change vs veh, TAOK1 / RFU, ACBD3 / Fold change vs veh, ACBD3 / RFU, TMA16 / Fold change vs veh, TMA16 / RFU, RWDD3 / Fold change vs veh, RWDD3 / RFU, BCAT1 / Fold change vs veh, BCAT1 / RFU, EDEM3 / Fold change vs veh, EDEM3 / RFU, TMEM33 / Fold change vs veh, TMEM33 / RFU, WDR75 / Fold change vs veh, WDR75 / RFU, AHCTF1 / Fold change vs veh, AHCTF1 / RFU, TFRC / Fold change vs veh, TFRC / RFU, ZDHHC17 / Fold change vs veh, ZDHHC17 / RFU, NOM1 / Fold change vs veh, NOM1 / RFU, ARL8B / Fold change vs veh, ARL8B / RFU, ZBTB11 / Fold change vs veh, ZBTB11 / RFU, TAMM41 / Fold change vs veh, TAMM41 / RFU, KIAA1704 /// LOC100996395 / Fold change vs veh, KIAA1704 /// LOC100996395 / RFU, ING1 / Fold change vs veh, ING1 / RFU, TRMT61B / Fold change vs veh, TRMT61B / RFU, FUBP3 / Fold change vs veh, FUBP3 / RFU, TP53 / Fold change vs veh, TP53 / RFU, TNKS2 / Fold change vs veh, TNKS2 / RFU, ZFP14 / Fold change vs veh, ZFP14 / RFU, ACTR2 / Fold change vs veh, ACTR2 / RFU, PPP3R1 / Fold change vs veh, PPP3R1 / RFU, PIK3R1 / Fold change vs veh, PIK3R1 / RFU, HNRNPA1 / Fold change vs veh, HNRNPA1 / RFU, RNF170 / Fold change vs veh, RNF170 / RFU, ZNF28 / Fold change vs veh, ZNF28 / RFU, RNGTT / Fold change vs veh, RNGTT / RFU, OGT / Fold change vs veh, OGT / RFU, BRD1 / Fold change vs veh, BRD1 / RFU, MARS / Fold change vs veh, MARS / RFU, ZNF655 / Fold change vs veh, ZNF655 / RFU, FAHD1 / Fold change vs veh, FAHD1 / RFU, BDP1 / Fold change vs veh, BDP1 / RFU, LRRCC1 / Fold change vs veh, LRRCC1 / RFU, ARID1A / Fold change vs veh, ARID1A / RFU, ZNF146 / Fold change vs veh, ZNF146 / RFU, ZNF330 / Fold change vs veh, ZNF330 / RFU, GPN3 / Fold change vs veh, GPN3 / RFU, C9orf123 / Fold change vs veh, C9orf123 / RFU, N4BP2L2 / Fold change vs veh, N4BP2L2 / RFU, ARFIP1 / Fold change vs veh, ARFIP1 / RFU, FAM179B / Fold change vs veh, FAM179B / RFU, BCL10 / Fold change vs veh, BCL10 / RFU, UHRF1BP1L / Fold change vs veh, UHRF1BP1L / RFU, BET1 / Fold change vs veh, BET1 / RFU, CNOT2 / Fold change vs veh, CNOT2 / RFU, ZNF268 / Fold change vs veh, ZNF268 / Fold change vs veh, ZNF507 / RFU, DGCR2 / Fold change vs veh, DGCR2 / RFU, WDSUB1 / Fold change vs veh, WDSUB1 / Fold change vs veh, HSP90B1 /// MIR3652 / RFU, ADSS / Fold change vs veh, ADSS / RFU, GK / Fold change vs veh, GK / RFU, ZNF148 / Fold change vs veh, ZNF148 / RFU, TAF9 / Fold change vs veh, TAF9 / RFU, SLC1A5 / Fold change vs veh, SLC1A5 / RFU, SLMO2 / Fold change vs veh, SLMO2 / RFU, ABCC4 / Fold change vs veh, ABCC4 / RFU, LOC101060439 /// RAP1B / Fold change vs veh, LOC101060439 /// RAP1B / RFU, RFX7 / Fold change vs veh, RFX7 / RFU, GTPBP10 / Fold change vs veh, GTPBP10 / RFU, CNEP1R1 / Fold change vs veh, CNEP1R1 / RFU, BIVM-ERCC5 /// ERCC5 / Fold change vs veh, BIVM-ERCC5 /// ERCC5 / RFU, ILF3 / Fold change vs veh, ILF3 / RFU 11762660_at / Fold change /veh 11762660_at / RFU VCAN (11757783_s_at) / Fold change /veh VCAN (11757783_s_at) / RFU DDX43 (11728927_at) / Fold change /veh DDX43 (11728927_at) / RFU KRT8 (11758188_x_at) / Fold change /veh KRT8 (11758188_x_at) / RFU NKD1 (11759106_at) / Fold change /veh NKD1 (11759106_at) / RFU SRD5A1 (11742802_a_at) / Fold change /veh SRD5A1 (11742802_a_at) / RFU TPSAB1 /// TPSB2 (11721975_s_at) / Fold change /veh TPSAB1 /// TPSB2 (11721975_s_at) / RFU GSTM3 (11746129_a_at) / Fold change /veh GSTM3 (11746129_a_at) / RFU IL23R (11737362_x_at) / Fold change /veh IL23R (11737362_x_at) / RFU TMEM51 (11727254_a_at) / Fold change /veh TMEM51 (11727254_a_at) / RFU PIWIL2 (11732686_x_at) / Fold change /veh PIWIL2 (11732686_x_at) / RFU ORM1 (11744905_x_at) / Fold change /veh ORM1 (11744905_x_at) / RFU CCDC152 (11743942_at) / Fold change /veh CCDC152 (11743942_at) / RFU ECM1 (11717891_a_at) / Fold change /veh ECM1 (11717891_a_at) / RFU IL23R (11748794_a_at) / Fold change /veh IL23R (11748794_a_at) / RFU TNFAIP8L3 (11732012_x_at) / Fold change /veh TNFAIP8L3 (11732012_x_at) / RFU MBOAT4 (11741988_at) / Fold change /veh MBOAT4 (11741988_at) / RFU 11764193_at / Fold change /veh 11764193_at / RFU TMEM53 (11763286_at) / Fold change /veh TMEM53 (11763286_at) / RFU MAGEB2 (11727129_at) / Fold change /veh MAGEB2 (11727129_at) / RFU TMEM200A (11744735_a_at) / Fold change /veh TMEM200A (11744735_a_at) / RFU CCDC152 (11751479_a_at) / Fold change /veh CCDC152 (11751479_a_at) / RFU FAM211A (11726209_a_at) / Fold change /veh FAM211A (11726209_a_at) / RFU RGS16 (11746705_a_at) / Fold change /veh RGS16 (11746705_a_at) / RFU VCAN (11755009_s_at) / Fold change /veh VCAN (11755009_s_at) / RFU RHOB (11743442_s_at) / Fold change /veh RHOB (11743442_s_at) / RFU RGS16 (11720943_a_at) / Fold change /veh RGS16 (11720943_a_at) / RFU RGS16 (11720944_at) / Fold change /veh RGS16 (11720944_at) / RFU, VPS4B / Fold change vs veh, VPS4B / RFU, CREB1 / Fold change vs veh, CREB1 / RFU, DNAJC13 / Fold change vs veh, DNAJC13 / RFU, GNAQ / Fold change vs veh, GNAQ / RFU, CDK5R1 / Fold change vs veh, CDK5R1 / RFU, ZRANB3 / Fold change vs veh, ZRANB3 / RFU, CUL4A / Fold change vs veh, CUL4A / RFU, CCNY / Fold change vs veh, CCNY / RFU, UFL1 / Fold change vs veh, UFL1 / RFU, COG3 / Fold change vs veh, COG3 / RFU, DIAPH2 / Fold change vs veh, DIAPH2 / RFU, SKA2 / Fold change vs veh, SKA2 / RFU, AFF3 / Fold change vs veh, AFF3 / RFU, LMF1 / Fold change vs veh, LMF1 / RFU, IPO11 / Fold change vs veh, IPO11 / RFU, DFFB / Fold change vs veh, DFFB / RFU, FOXP1 / Fold change vs veh, FOXP1 / RFU, CARD8 / Fold change vs veh, CARD8 / RFU, STRN3 / Fold change vs veh, STRN3 / RFU, ADK / Fold change vs veh, ADK / RFU, RASSF2 / Fold change vs veh, RASSF2 / RFU, WIPF1 / Fold change vs veh, WIPF1 / RFU, LARP1B / Fold change vs veh, LARP1B / RFU, RASA1 / Fold change vs veh, RASA1 / RFU, RB1 / Fold change vs veh, RB1 / RFU, PPFIA1 / Fold change vs veh, PPFIA1 / RFU, MAT2A / Fold change vs veh, MAT2A / RFU, CCT5 / Fold change vs veh, CCT5 / RFU, WDR92 / Fold change vs veh, WDR92 / RFU, CUX1 / Fold change vs veh, CUX1 / RFU, TTC7A / Fold change vs veh, TTC7A / RFU, TMEM135 / Fold change vs veh, TMEM135 / RFU, DEPTOR / Fold change vs veh, DEPTOR / RFU, CPM / Fold change vs veh, CPM / RFU, DNAJB6 / Fold change vs veh, DNAJB6 / RFU, CACNA2D3 / Fold change vs veh, CACNA2D3 / RFU, DTX4 / Fold change vs veh, DTX4 / RFU, TFCP2 / Fold change vs veh, TFCP2 / RFU, GMCL1 /// GMCL1P1 / Fold change vs veh, GMCL1 /// GMCL1P1 / RFU, AEBP2 / Fold change vs veh, AEBP2 / RFU, SNHG1 /// SNORD22 /// SNORD25 /// SNORD26 /// SNORD27 /// SNORD28 /// SNORD29 /// SNORD31 / Fold change vs veh, SNHG1 /// SNORD22 /// SNORD25 /// SNORD26 /// SNORD27 /// SNORD28 /// SNORD29 /// SNORD31 / Fold change (Aza/veh), C12orf56 (ProbeSet 11735607_a_at) / Fold change (ACY-1035/veh), C12orf56 (ProbeSet 11735607_a_at) / Fold change (Aza/veh), FGFR1OP (ProbeSet 11751329_s_at) / Fold change (ACY-1035/veh), FGFR1OP (ProbeSet 11751329_s_at) / Fold change (Aza/veh), VPS36 (ProbeSet 11739960_a_at) / Fold change (ACY-1035/veh), VPS36 (ProbeSet 11739960_a_at) / RFU SYPL1 (11715823_x_at) / Fold change /veh SYPL1 (11715823_x_at) / RFU IGFBP7 (11715501_s_at) / Fold change /veh IGFBP7 (11715501_s_at) / RFU REEP3 (11722064_at) / Fold change /veh REEP3 (11722064_at) / RFU IGLL1 (11728026_x_at) / Fold change /veh IGLL1 (11728026_x_at): dose or concentration left out as unconfirmed
# Conditions: MV-4-11 cells, 48 hours
compound,measurement,value
Nc1ncn([C@@H]2O[C@H](CO)[C@@H](O)[C@H]2O)c(=O)n1 [azacitidine],RFU CDHR5 (11726645_a_at),45.99 RFU
